In data set [1] the test system is Leptosphaeria nodorum—LEPTNO. Put plainly: Glume Blotch of Wheat, in vivo whole plant, 24 Hour Protectant. The note with it: for pest or weed control at 100 ppm: Leptosphaeria, read-out: LEPTNO in vivo 1 Day Protectant.
Data set [2] concerns Phytophthora infestans (PHYTIN). Put plainly: microbe, parasite or virus in culture. It is filed as cell-based. The following applies: Phytophthora infestans, read-out: PHYTIN in vitro Growth Inhibition.
Data set [3] deals with Puccinia recondita—PUCCRT. In words: Brown Rust of Wheat, in vivo whole plant, 24 Hour Protectant. The following applies: for pest or weed control at 100 ppm: Puccinia, read-out: PUCCRT in vivo 1 Day Protectant.
Data set [4] concerns Stagonospora nodorum (Leptosphaeria nodorum—LEPTNO). Put plainly: In vitro fungal growth inhibition, Stagonospora nodorum (LEPTNO). Type of data set: cell-based. The following applies: Leptosphaeria, read-out: LEPTNO in vitro Growth Inhibition.
A further data set relates to Ustilago maydis (USTIMA). In words: microbe, parasite or virus in culture. It is filed as cell-based. The following applies: Mycosarcoma maydis, read-out: USTIMA in vitro Growth Inhibition.
Data set [5] concerns Magnaporthe grisea (Pyricularia oryzae—PYRIOR). Put plainly: microbe, parasite or virus in culture. It is filed as cell-based. The following applies: Pyricularia oryzae, read-out: PYRIOR in vitro Growth Inhibition.
For data set [6], the system named is Rhizoctonia solani (RHIZSO). In words: microbe, parasite or virus in culture. It is filed as cell-based. The note with it: Rhizoctonia solani, read-out: RHIZSO in vitro Growth Inhibition.
Data set [7] concerns Phytophthora infestans—PHYTIN. Put plainly: whole plant or invertebrate. The note with it: Phytophthora, in Solanum lycopersicum, 24 h, read-out: PHYTIN in vivo 1 Day Protectant. Type of data set: in vivo.
The subject of a further data set is Erysiphe graminis—ERYSGT. In words: Powdery Mildew of Wheat, in vivo whole plant, 24 Hour Protectant. The note with it: for pest or weed control at 100 ppm: Erysiphe, read-out: ERYSGT in vivo 1 Day Protectant.
In the next data set the test system is Septoria tritici—SEPTTR. Put plainly: Leaf Blotch of Wheat, in vivo whole plant, 24 Hour Protectant. The following applies: for pest or weed control at 100 ppm: Zymoseptoria tritici, 24 h, control of fungal infection vs untreated plants, read-out: SEPTTR in vivo 1 Day Protectant.
In data set [8] the test system is Mycosphaerella graminicola (Septoria tritici—SEPTTR). Put plainly: In vitro fungal growth inhibition, Mycosphaerella graminicola (SEPTTR). Type of data set: cell-based. The following applies: Zymoseptoria tritici, read-out: SEPTTR in vitro Growth Inhibition.
The mark [9] stands for this setting: 100 ppm spray, wheat, 24 hour protectant, control of fungal infection vs untreated plants.
Setting [10] is: wheat plants sprayed at 100 ppm, inoculated after 24 hours, control of fungal infection vs untreated plants.
The mark [11] stands for this setting: wheat plants sprayed at 100 ppm, inoculated after 24 hours.
The mark [12] stands for this setting: 100 ppm spray, 24 hour protectant, wheat, control of fungal infection vs untreated plants.
The mark [13] stands for this setting: 100 ppm spray, wheat, 24 hour protectant, % control of fungal infection vs untreated plants.

Like-named read-outs stand apart in the source and are kept apart here.

`COc1ccnc(C(=O)N[C@H]2COC(=O)[C@H](Cc3ccccc3)[C@@H](OCC(C)C)[C@H](C)OC2=O)c1O` [Compound 384] had a melting point of 172 to 174 °C. Moreover, the “LEPTNO in vivo 1 Day Protectant” value in [1] (setting [9]) is reported as “+ +”. In data set [2], the inhibition at 25 ppm was < 80%. For the same compound, in [3] (setting [9]), the pest or weed control at 100 ppm is 25 to 74%. Further, the inhibition at 25 ppm in data set [4] (25 ppm in growth medium) was > 80%. The inhibition at 25 ppm with Ustilago maydis (USTIMA) is < 80%. Further, the inhibition at 25 ppm in data set [5] is > 80%. Besides, the inhibition at 25 ppm in [6] was < 80%. The pest or weed control at 100 ppm in data set [7] is < 25%. In the data set with Erysiphe graminis—ERYSGT (setting [9]), the “ERYSGT in vivo 1 Day Protectant” value is “+ +”. In addition, the pest or weed control at 100 ppm in the data set on Septoria tritici—SEPTTR (100 ppm spray, wheat, 24 hour protectant) lay within 25 to 74%. For the same compound, the inhibition at 25 ppm in data set [8] (25 ppm in growth medium) is > 80%.
On to `CC1(C)CC(NC(=O)c2nccnc2O)CC(C)(C)C1` [Compound 533], for which the melting point was 248 to 250 °C (dec.). Further, in [1] (setting [10]), the pest or weed control at 100 ppm lay in the range of 25 to 74%. Also, the inhibition at 25 ppm in data set [2] is < 80%. For the same compound, in data set [3] (setting [10]), the pest or weed control at 100 ppm lay in the range of 25 to 74%. In addition, the inhibition at 25 ppm in data set [4] (25 ppm in the growth medium) was < 80%. The inhibition at 25 ppm with Ustilago maydis (USTIMA) is < 80%. Further, in data set [5], the inhibition at 25 ppm was < 80%. Besides, the inhibition at 25 ppm in [6] was < 80%. Besides, the pest or weed control at 100 ppm in data set [7] is 25 to 74%. Further, in the data set on Erysiphe graminis—ERYSGT (setting [10]), the pest or weed control at 100 ppm was < 25%. Also, the pest or weed control at 100 ppm with Septoria tritici—SEPTTR (setting [11]) was in the range of 25 to 74%. For the same compound, the inhibition at 25 ppm in data set [8] (25 ppm in the growth medium) is < 80%.
With `COc1ccnc(C(=O)N[C@H]2CO[C@](C)(C(C)CC3=C(C)CCCC3(C)C)OC2)c1O` (stereo partly drawn) [Compound 319], the melting point was 139 to 140 °C. In addition, the pest or weed control at 100 ppm in [1] (setting [12]) is < 25%. Also, the inhibition at 25 ppm in [2] is < 80%. The “PUCCRT in vivo 1 Day Protectant” value in [3] (setting [12]) is “+ +”. Besides, in [4] (25 ppm in growth medium), the inhibition at 25 ppm is < 80%. In addition, the inhibition at 25 ppm in the data set on Ustilago maydis (USTIMA) was < 80%. Further, the inhibition at 25 ppm in [5] is < 80%. Moreover, the inhibition at 25 ppm in data set [6] is < 80%. In addition, in data set [7], the pest or weed control at 100 ppm is < 25%. In addition, the pest or weed control at 100 ppm in the data set on Erysiphe graminis—ERYSGT (setting [12]) was 25 to 74%. In addition, the pest or weed control at 100 ppm with Septoria tritici—SEPTTR (100 ppm spray, 24 hour protectant, wheat) lay within 25 to 74%. Further, in data set [8] (25 ppm in growth medium), the inhibition at 25 ppm was < 80%.
The compound `CSc1ccnc(C(=O)NC2COC(=O)[C@H](Cc3ccccc3)[C@@H](OC(=O)C(C)C)[C@H](C)OC2=O)c1O` (stereo partly drawn) [Compound 478] showed a melting point of 184 to 187 °C. For the same compound, the pest or weed control at 100 ppm in data set [1] (setting [10]) fell in the range of 25 to 74%. Besides, the inhibition at 25 ppm in [2] is < 80%. For the same compound, the pest or weed control at 100 ppm in data set [3] (setting [10]) is 25 to 74%. Further, the inhibition at 25 ppm in data set [4] (25 ppm in the growth medium) was < 80%. The inhibition at 25 ppm in the data set with Ustilago maydis (USTIMA) was < 80%. The inhibition at 25 ppm in data set [5] was < 80%. Besides, the inhibition at 25 ppm in data set [6] was < 80%. Further, the pest or weed control at 100 ppm in data set [7] is < 25%. For the same compound, the pest or weed control at 100 ppm in the data set with Erysiphe graminis—ERYSGT (setting [10]) is < 25%. The pest or weed control at 100 ppm in the data set with Septoria tritici—SEPTTR (setting [11]) lay within 25 to 74%. Besides, in [8] (25 ppm in the growth medium), the inhibition at 25 ppm is < 80%.
`COCCC(=O)Oc1c(OC)ccnc1C(=O)Nc1cccc(NC(=O)c2ccc(C(F)(F)F)cc2)c1` [Compound 718] registered a melting point of 115 to 118 °C. Also, the pest or weed control at 100 ppm in [1] (setting [13]) fell in the range of 25 to 74%. For the same compound, the inhibition at 25 ppm in data set [2] is < 80%. For the same compound, the pest or weed control at 100 ppm in data set [3] (setting [13]) lay within 25 to 74%. In addition, the inhibition at 25 ppm in [4] (25 ppm in growth medium) is < 80%. Further, in the data set on Ustilago maydis (USTIMA), the inhibition at 25 ppm is < 80%. Also, in data set [5], the inhibition at 25 ppm was < 80%. Further, the inhibition at 25 ppm in [6] is < 80%. Besides, the pest or weed control at 100 ppm in data set [7] is < 25%. Also, the pest or weed control at 100 ppm with Erysiphe graminis—ERYSGT (setting [13]) is < 25%. For the same compound, in the data set on Septoria tritici—SEPTTR (setting [13]), the “SEPTTR in vivo 1 Day Protectant” value is listed as “+ +”. Further, the inhibition at 25 ppm in data set [8] (25 ppm in growth medium) is < 80%.

A word on the inhibition: it is the change of the read-out against control, counted positive when it falls. Usually melting point stands for the temperature of the solid-liquid transition.

(Values after US6706740B2, “Fungicidal heterocyclic aromatic amides and their compositions, methods of use and preparation” (Dow AgroSciences LLC, priority 1999, dated 2004).)
